One data set relates to Mites. Nature of the data set: Cut-Stem Systemic Test (Mites). In kind it is in vivo. Conditions: 100 ppm. emulsion, 3 days. The method, then: (§1) The compound to be tested is formulated as an emulsion containing 0.1 gram of test material, 0.2 gram of Alrodyne 315 emulsifier, 10 ml. of acetone and 90 ml. of water. This is diluted tenfold with water to give a 100 ppm. emulsion for the initial test. A sieva lima bean plant with only the primary leaves unfolded is cut off just above soil level and inserted into a 2-ounce bottle of 100 ppm. emulsion and held in place by a bit of cotton wrapped around the stem. The bottle is then placed in a ventilated box with the leaves extending outside the box, such that any possible fumes from the compound will be drawn out the end of the box rather than rising to affect the test leaves. After holding 3 days at 80° F. and 60% R.H., one leaf from each plant is placed on a moist filter paper in the bottom of a petri dish. Ten third-instar Southern armyworm larvae are then added to each dish and mortality counts made after holding another 3 days at 80° F. and 60% R.H.
The same procedure described above is employed in the mite systemic evaluation excepting that the sieva lima bean leaves are infested with mites, both adult and nymphs, while the leaves are in the ventilated box. After 3 days the leaves are removed and examined under a microscope to determine percent mortality. Data obtained are reported in the Table IV below where it can be seen that the compounds of the present invention are systemically effective insecticidal agents.

Data set [1] can be described thus: Mammalian Toxicity Studies (LD50 for Rats). Also noted: species or system male albino rats (Carworth Farms Nelson strain). The settings on record: rat, in vivo; 14-day observation; corn oil. The method, then: (§2) Twenty male albino rats or mice of the Carworth Farms Nelson strain (CFI strain for mice)(or other suitable strain) weighing approximately 90 to 120 grams (18-20g. for mice) are selected. Basically, these animals are fasted 24 hours before dosing. Mice are not fasted.
(§3) For materials which are soluble or easily dispersed in an aqueous medium, a 20% solution or suspension is prepared in an aqueous solution of 0.2% agar and 0.1% "Tween" 80. The same series of dosages (grams or milliliters of material per kilogram of animal body weight) are used for all materials in this test. If no previous information is available on the compound or its analogs, a maximum dosage of 10 g/kg is selected to differ by a geometric factor of 2 from the preceding dose, i.e., 10, 5, 2.5, 1.25 g/kg. A sufficient number of dosages are given so as to bracket a 50% response. The animals are observed for several hours after dosing and daily over a 14-day observation period. At the end of this period the survivors are sacrificed, weighed and subjected to a gross autopsy. The results are tabulated and the LD50 is calculated by the method of moving averages using the tables constructed by Weil. [Weil, C. S., Biometrics, 8: (3), 249-263, 1952].
(§4) Samples received as liquids may be administered undiluted or as suspensions in aqueous Agar-Tween, depending on the viscosity of the material. If the material is believed to be relatively non-toxic, an initial maximum dosage of 10 ml/kg is selected and subsequent dosages are selected based upon the severity of gross signs of toxicity.
(§5) For organic phosphate anticholinesterase insecticides, the procedure is modified somewhat. The phosphates are readied for administration by preparing a solution or dispersion in corn oil (Mazola), the concentration of which is adjusted so that the total volume of the dose is 20 ml/kg ([…]) in every case. The initial solution is prepared by deciding upon the maximum dosage in mg/kg to be administered and preparing 50 ml. (10 in mouse test) of this solution of such a concentration that the desired dosage in mg/kg is delivered when 2 ml. (0.5 ml. in mouse test) of the solution is administered for 100 g (20 g in mouse) of rat body weight. Serial dilutions differing by a factor of two are then prepared for each lower dosage level.

Data set [2] has as its system Southern corn rootworm larvae (Diabrotica undecimpunctata). As to the kind of experiment: Southern Corn Rootworm Control (treated soil, dust on talc). The settings on record: 144 h, potting soil, mortality after 6 days, read-out: Percent Control of Southern Corn Rootworm Larvae; for mortality at 1120.85 g/ha: 1 lbs./Acre; for mortality at 11208.5 g/ha: 10 lbs./Acre; for mortality at 56042.5 g/ha: 50 lbs./Acre. In kind it is in vivo. The method, then:
Compounds are prepared as dusts on talc. The compounds are dissolved in acetone, and appropriate rates obtained by serial dilution. One and one-quarter milliliters of solution is pipetted onto a standard volume of dust in 1 -ounce jars, and the acetone allowed to evaporate. Twenty-five milliliters of moist soil and about 200 millet seeds are placed in the jar, capped and the contents thoroughly mixed. Ten second-instar larvae of the Southern corn rootworm (Diabrotica undecimpunctata ) are then placed in each jar. Mortality counts are made after 6 days and percent mortality determined.

Another data set has as its system Southern armyworm larvae. As to the kind of experiment: Cut-Stem Systemic Test (Southern Armyworm). The data set is classed as in vivo. The settings on record: Spodoptera eridania, 72 h, read-out: % Mortality, Southern Armyworms (Systemic Insecticidal Activity). The method, then: as §1
The nature of data set [3]: Mammalian Toxicity Studies (LD50 for Mice). Also noted: species or system mice (Carworth Farms Nelson, CFI strain). The settings on record: mouse, in vivo; 14-day observation; corn oil. The method, then:
as §2, §3, §4, §5

Data set [4] relates to False wireworm larvae (Eleodes suturalis). As to the kind of experiment: False Wireworm Control (treated soil, dust on talc). The data set is classed as in vivo. Conditions: 144 h, potting soil, mortality after 6 days, read-out: Percent Control of False Wireworms; for mortality at 1120.85 g/ha: 1 lbs./Acre; for mortality at 11208.5 g/ha: 10 lbs./Acre; for mortality at 56042.5 g/ha: 50 lbs./Acre. The method, then:
Compounds are prepared as dusts on talc. The compounds are dissolved in acetone, and appropriate rates obtained by serial dilution. One and one-quarter milliliters of solution is pipetted onto a standard volume of dust in 1 -ounce jars, and the acetone allowed to evaporate. Twenty-five milliliters of moist soil and about three wheat seeds are placed in the jar, capped, and the contents thoroughly mixed. Ten False wireworm larvae (Eleodes suturalis ), 10 days old, are then placed in each jar. Mortality counts are made after 6 days and percent mortality determined.

Another data set deals with Rats. Also noted: unit not given here. Conditions: Value reported in the literature; 20160 min; cited from earlier work.
The mark [5] stands for this setting: cut-stem, 100 ppm. emulsion, larvae held 3 days.

Read-outs that look alike come from different tables or passages of the source. Some results are limits rather than exact numbers.

In the case of `COP(=S)(OC)SCSC(C)(C)c1ccc(Br)cc1` [Example 13, S-(p-Bromo-α,α-dimethylbenzylthio)methyl O,O-Dimethyl Phosphordithioate], the “% Mortality, Mites (Systemic Insecticidal Activity)” value (from here on “% Mortality, Mites”) in the data set on Mites worked out at 100%. For the same compound, the LD50 at 336 h in data set [1] is 280 mg/kg. Moreover, in data set [2], the mortality at 1120.85 g/ha stood at 90%, the mortality at 11208.5 g/ha was determined as 100% and the mortality at 56042.5 g/ha was 100%. Moreover, the mortality at 100 µg/mL in the data set with Southern armyworm larvae (setting [5]) worked out at 100%.

Consider `CCOP(=S)(OCC)SCSCC` [reference compound], for which the LD50 at 336 h in data set [1] is 1 to 5 mg/kg; in data set [3] it was 5.6 mg/kg.

For the compound `CCCSP(=O)(OCC)SCSC(C)(C)c1ccccc1` (stereo not drawn) [Example 12, S-(α,α-Dimethylbenzylthio)methyl O-Ethyl S-Propyl Phosphorodithioate], the “% Mortality, Mites” value with Mites amounted to 90%. In data set [1], the LD50 at 336 h is 34 mg/kg. In data set [2], the mortality at 1120.85 g/ha turned out to be 0%, the mortality at 11208.5 g/ha amounted to 100% and the mortality at 56042.5 g/ha stood at 100%. The mortality at 100 µg/mL in the data set on Southern armyworm larvae (setting [5]) turned out to be 0%.

For `CCOP(=S)(OCC)SC[S+]([O-])C(C)(C)c1ccccc1` (stereo not drawn) [Example 27, S-(α,α-Dimethylbenzylsulfinyl)methyl O,O-Diethyl Phosphorodithioate], the LD50 at 336 h in data set [3] worked out at 88 mg/kg. Also, in data set [4], the mortality at 1120.85 g/ha amounted to 0%, the mortality at 11208.5 g/ha came out at 100% and the mortality at 56042.5 g/ha stood at 100%. In addition, in data set [2], the mortality at 1120.85 g/ha was determined as 0%, the mortality at 11208.5 g/ha was 100% and the mortality at 56042.5 g/ha was found to be 100%.

`CCOP(=S)(OCC)SCSC(C)c1ccccc1` (stereo not drawn) [Example 15, S-(α-Methylbenzylthio)methyl O,O-Diethyl Phosphorodithioate] showed an LD50 at 336 h in data set [3] of 67 mg/kg. Also, in data set [4], the mortality at 1120.85 g/ha amounted to 0%, the mortality at 11208.5 g/ha was determined as 100% and the mortality at 56042.5 g/ha is 100%. In data set [2], the mortality at 1120.85 g/ha came out at 80%, the mortality at 11208.5 g/ha stood at 100% and the mortality at 56042.5 g/ha was 100%.

For the compound `COP(=S)(OC)SCSC(C)(C)c1ccccc1` [Example 5, S-(α,α-Dimethylbenzylthio)methyl O,O-Dimethyl Phosphorodithioate], the LD50 at 336 h was found to be 28 mg/kg in data set [1] and 117 mg/kg in data set [3]. Besides, the mortality at 1120.85 g/ha in data set [4] and in data set [2] was 100% throughout. Besides, the mortality at 11208.5 g/ha in data set [4] and in data set [2] was 100% each time. The mortality at 56042.5 g/ha in data set [4] and in data set [2] was 100% in each case.

In the case of `COP(=S)(OC)SCSC(C)(C)c1ccc(Cl)c(Cl)c1` [Example 11, S-(3,4-Dichloro-α,α-dimethylbenzylthio)methyl O,O-Dimethyl Phosphorodithioate], in the data set on Mites, the “% Mortality, Mites” value is given as 30%. Further, in data set [1], the LD50 at 336 h was greater than 200 mg/kg. For the same compound, in data set [2], the mortality at 1120.85 g/ha amounted to 100%, the mortality at 11208.5 g/ha came to 100% and the mortality at 56042.5 g/ha stood at 100%. The mortality at 100 µg/mL with Southern armyworm larvae (setting [5]) was found to be 90%.

On to `COP(=S)(OC)SCSC(C)(C)c1cc(Cl)ccc1Cl` [Example 25, S-(2,5-Dichloro-α,α-dimethylbenzylthio)methyl O,O-Dimethyl Phosphorodithioate], for which the LD50 at 336 h in data set [1] was 800 mg/kg. In data set [2], the mortality at 1120.85 g/ha turned out to be 0%, the mortality at 11208.5 g/ha was 100% and the mortality at 56042.5 g/ha was determined as 100%.

Take `CCOP(=S)(OCC)SCSC(C)(C)c1ccccc1` [Example 2, S-(α,α-Dimethylbenzylthio)methyl O,O-Diethyl Phosphorodithioate]: the “% Mortality, Mites” value in the data set on Mites worked out at 80%. Also, the LD50 at 336 h in data set [1] was 18 mg/kg; in data set [3], 71 mg/kg. For the same compound, the mortality at 1120.85 g/ha in data set [4] was determined as 0%; in data set [2], 90%. The mortality at 11208.5 g/ha in data set [4] and in data set [2] was 100% each time. Besides, the mortality at 56042.5 g/ha in data set [4] and in data set [2] was 100% throughout. Besides, the mortality at 100 µg/mL with Southern armyworm larvae worked out at 100%.

Regarding `CCOP(=S)(OCC)SCSC(C)(C)c1ccc(Cl)c(Cl)c1` [Example 8, S-(3,4-Dichloro-α,α-dimethylbenzylthio)methyl O,O-Diethyl Phophorodithioate], in the data set with Mites, the “% Mortality, Mites” value was found to be 100%. The LD50 at 336 h in data set [1] stood at 100 mg/kg. Besides, the mortality at 100 µg/mL in the data set with Southern armyworm larvae (setting [5]) came to 100%.

Compound `CCOP(=S)(OCC)SCSCc1ccccc1` [reference compound] registered an LD50 at 336 h in data set [3] of 67 mg/kg. The “LD50 Rats” value with Rats is 25.

With `COP(=S)(OC)SCSC(C)(C)c1ccc(Cl)cc1` [Example 7, S-(p-Chloro-α,α-dimethylbenzylthio)methyl O,O-Dimethyl Phosphorodithioate], in the data set on Mites, the “% Mortality, Mites” value stood at 100%. Also, the LD50 at 336 h in data set [1] is 230 mg/kg. Further, in data set [2], the mortality at 1120.85 g/ha turned out to be 100%, the mortality at 11208.5 g/ha worked out at 100% and the mortality at 56042.5 g/ha worked out at 100%. Further, the mortality at 100 µg/mL with Southern armyworm larvae (setting [5]) is 100%.

With `COP(=O)(SC)SCSC(C)(C)c1ccc(Cl)cc1` (stereo not drawn) [Example 16, S-(p-Chloro-α,α-dimethylbenzylthio)methyl O-Methyl S-Methyl Phosphorodithioate], the “% Mortality, Mites” value in the data set on Mites turned out to be 30%. For the same compound, in data set [2], the mortality at 1120.85 g/ha stood at 0%, the mortality at 11208.5 g/ha was 100% and the mortality at 56042.5 g/ha worked out at 100%. Besides, the mortality at 100 µg/mL with Southern armyworm larvae (setting [5]) was 0%.

(Values after patent US4000269A, “S-(α-substituted-arylmethylthio, -arylmethylsulfinyl, and -arylmethylsulfonyl)methyl phosphorus esters used as insecticides” (priority 1975, dated 1976).)
